Assay results: patent publication US8680137B2, “Agents and methods for treating ischemic and other diseases” (Nono Inc., priority 2009, dated 2014)
Read-outs that look alike come from different tables or passages of the source.

Legend:
[1] = system: retinal ganglion cells (RGCs); assay: OGD in cultured primary retinal ganglion cells, PI fluorescence; type: cell-based, rat; details: 5 μM, 24 hours after 3 hour OGD
Excerpt: Acute and chronic retinal ischemia are major causes of blindness. Retinal damage from glaucoma, also termed “slow excitotoxicity” afflicts millions of people each year and is the second leading cause of blindness worldwide (after cataracts). Diabetic retinopathy is also very common, afflicting about 40% of diabetics and, while less commonly producing complete blindness, is a leading cause of visual impairment. The retina is an extension of the CNS, and was the first organ in which excitotoxicity was described. This invention discloses TPRM7 antagonists that can inhibit anoxic retinal damage. To examine this, we cultured primary retinal ganglion cells (RGCs) and organotypic whole retinas from neonatal rat pups by standard methods and exposed them to OGD (1 or 3 hours). […] This underscores our earlier discussion that inhibiting TRPM7 is a ubiquitous mechanism for the reduction of ischemic damage.

Y79 retinoblastoma cells = assay: Cancer cell proliferation, Y79; type: cell-based
Experimental: (§1) To determine the breadth of efficacy in cancers, we examined the efficacy of a range of TRPM7 inhibitors for their ability to inhibit cell proliferation in cancer cell lines. Representative figures are included as examples.
(§2) Cells (Table 1) were grown to 70% confluency, trypsinized, counted, and seeded in 96-well flat-bottom plates at a final concentration of 2.5×10^3-5.0×10^3 cells/well in growth media containing 5% FBS (Day 0). Other well sizes and cell densities were used successfully as well. Cells were allowed to incubate in growth media for 24 hours to allow for maximum adhesion. Treatment with the test agent began on Day 1 and continued for 72 hours either with or without retreatment. At the 72 hour time point, viable cell numbers are quantified by the CellTiter-Glo® cell viability assay as described above, or using standard MTT, SRB or BrDU assays. Experiments were repeated at least twice with the same concentrations to determine growth inhibitory activity.
(§3) Data Collection—For the cell proliferation studies, data from each experiment was collected and expressed as % Cell Growth using the following calculation: % Cell Growth=(ftest/fvehicle)×100 Where ftest is the luminescent signal of the tested sample, and fvehicle is the luminescence of the vehicle in which the drug is dissolved (or appropriate measure for the other viability/proliferation measures). Dose response graphs and IC50 values were generated using standard software using the following variable slope equation: […]

[2] = system: MCF-7 breast cancer cells; assay: Cancer cell proliferation, MCF-7; type: cell-based; details: for proliferation: MCF-7, FIG. 80; for Demonstrated Reduction of Proliferation at or below 10 μM Inhibitor concentration: MCF-7, >20% inhibition at 48-96 hours, MTT, SRB, luminescence or BrDU
Experimental: as §1, §2, §3

[3] = system: MDA-MB231 breast cancer cells; assay: Cancer cell proliferation, MDA-MB231; type: cell-based; details: MDA-MB231, FIG. 80
Experimental: as §1, §2
(§4) Data Collection—For the cell proliferation studies, data from each experiment was collected and expressed as % Cell Growth using the following calculation: % Cell Growth=(ftest/fvehicle)×100 Where ftest is the luminescent signal of the tested sample, and fvehicle is the luminescence of the vehicle in which the drug is dissolved (or appropriate measure for the other viability/proliferation measures). […]

B16F1 melanoma cells = assay: Cancer cell proliferation, B16F1; type: cell-based, mouse; details: B16F1, FIG. 81
Experimental: as §1, §2, §4

B16F10 melanoma cells = assay: Cancer cell proliferation, B16F10; type: cell-based, mouse; details: for proliferation: B16F10, FIG. 81; for Demonstrated Reduction of Proliferation at or below 10 μM Inhibitor concentration: B16F10, >20% inhibition at 48-96 hours, MTT, SRB, luminescence or BrDU; for IC50: Mus musculus
Experimental: as §1, §2, §3

U2OS osteosarcoma = assay: Cancer cell proliferation, U2OS; type: cell-based; details: >20% inhibition at 48-96 hours, MTT, SRB, luminescence or BrDU
Experimental: as §1, §2, §4

DMS53 Lung cancer = assay: Cancer cell proliferation, DMS53; type: cell-based; details: >20% inhibition at 48-96 hours, MTT, SRB, luminescence or BrDU
Experimental: as §1, §2, §4

DMS456 lung cancer = assay: Cancer cell proliferation, DMS456; type: cell-based; details: >20% inhibition at 48-96 hours, MTT, SRB, luminescence or BrDU
Experimental: as §1, §2, §4

in vivo = details: mouse, mice, highest dose tested, read-out: maximum tolerated dose
[4] = system: voltage-sensitive Na+ currents; assay: Voltage-sensitive Na+ currents in cultured cortical neurons; type: cell-based; details: at concentrations sufficient to inhibit TRPM7
Experimental: (§5) To examine selectivity of a subset of these TRPM7 inhibitors, experiments were performed to determine whether TRPM7 antagonists cross-react with other ionic channels and receptors. […] From a therapeutic perspective, knowledge of cross-reactivity of candidate drugs could shed light on other ischemic mechanisms and raise awareness of potential side effects. M21 has no effect on voltage-sensitive Na+, and Ca2+ currents in cultured cortical neurons […] TRPM7-expressing HEK293 cells, but inhibits K+ currents by about 20% at membrane potentials of −10 mV. M21 had no effect on agonist-induced Ca2+ changes in HEK293 cells transfected with constructs for TRPM2, TRPM4, TRPM6, TRPV1, TRPC2 and TRPA1. M21 also has no effect on NMDA and AMPA receptor currents in cultured neurons. […] Similar experiments were performed with other TRPM7 inhibitors including M5 and M11.

[5] = system: voltage-sensitive Ca2+ currents; assay: Voltage-sensitive Ca2+ currents in cultured cortical neurons; type: cell-based; details: at concentrations sufficient to inhibit TRPM7
Experimental: as §5

K+ currents = K+ currents in cultured cortical neurons; type: cell-based
Experimental: as §5

[6] = system: mixed retinal cell cultures; assay: OGD in dissociated mixed rat retinal cultures; type: cell-based
Experimental: (§6) The ability of TRPM7 inhibitors to protect other types of cell cultures following exposure to anoxia, including non-neuronal cell cultures, has also been tested. In general, cultures of growing cells are exposed to a 1-6 hour period of anoxia, followed by addition of a TRPM7 at a range of concentrations upon removal from anoxic conditions. […] This implies that TRPM7 inhibitors may be useful both as a treatment for anoxic damage to patients presenting symptoms of a disorder associated with anoxic damage, or as a preventative measure. Such preventative measures can be chronic, such as treatment to protect against damage from heart attacks or strokes, or acute, to be given prior to or during surgical procedures, which may include but not be limited to procedures that involve endovascular invasion and have the possibility of dislodging material that may block blood flow through arteries. […]

TRPM6 = target: T1, TRPM6 (Homo sapiens, UniProt Q9BX84); assay: Agonist-induced Ca2+ changes in HEK293 cells transfected with TRPM6; type: cell-based
T1 construct: expressed in transfected cells; host or cells: HEK293
T1 sequence (Q9BX84 whole entry, species assumed): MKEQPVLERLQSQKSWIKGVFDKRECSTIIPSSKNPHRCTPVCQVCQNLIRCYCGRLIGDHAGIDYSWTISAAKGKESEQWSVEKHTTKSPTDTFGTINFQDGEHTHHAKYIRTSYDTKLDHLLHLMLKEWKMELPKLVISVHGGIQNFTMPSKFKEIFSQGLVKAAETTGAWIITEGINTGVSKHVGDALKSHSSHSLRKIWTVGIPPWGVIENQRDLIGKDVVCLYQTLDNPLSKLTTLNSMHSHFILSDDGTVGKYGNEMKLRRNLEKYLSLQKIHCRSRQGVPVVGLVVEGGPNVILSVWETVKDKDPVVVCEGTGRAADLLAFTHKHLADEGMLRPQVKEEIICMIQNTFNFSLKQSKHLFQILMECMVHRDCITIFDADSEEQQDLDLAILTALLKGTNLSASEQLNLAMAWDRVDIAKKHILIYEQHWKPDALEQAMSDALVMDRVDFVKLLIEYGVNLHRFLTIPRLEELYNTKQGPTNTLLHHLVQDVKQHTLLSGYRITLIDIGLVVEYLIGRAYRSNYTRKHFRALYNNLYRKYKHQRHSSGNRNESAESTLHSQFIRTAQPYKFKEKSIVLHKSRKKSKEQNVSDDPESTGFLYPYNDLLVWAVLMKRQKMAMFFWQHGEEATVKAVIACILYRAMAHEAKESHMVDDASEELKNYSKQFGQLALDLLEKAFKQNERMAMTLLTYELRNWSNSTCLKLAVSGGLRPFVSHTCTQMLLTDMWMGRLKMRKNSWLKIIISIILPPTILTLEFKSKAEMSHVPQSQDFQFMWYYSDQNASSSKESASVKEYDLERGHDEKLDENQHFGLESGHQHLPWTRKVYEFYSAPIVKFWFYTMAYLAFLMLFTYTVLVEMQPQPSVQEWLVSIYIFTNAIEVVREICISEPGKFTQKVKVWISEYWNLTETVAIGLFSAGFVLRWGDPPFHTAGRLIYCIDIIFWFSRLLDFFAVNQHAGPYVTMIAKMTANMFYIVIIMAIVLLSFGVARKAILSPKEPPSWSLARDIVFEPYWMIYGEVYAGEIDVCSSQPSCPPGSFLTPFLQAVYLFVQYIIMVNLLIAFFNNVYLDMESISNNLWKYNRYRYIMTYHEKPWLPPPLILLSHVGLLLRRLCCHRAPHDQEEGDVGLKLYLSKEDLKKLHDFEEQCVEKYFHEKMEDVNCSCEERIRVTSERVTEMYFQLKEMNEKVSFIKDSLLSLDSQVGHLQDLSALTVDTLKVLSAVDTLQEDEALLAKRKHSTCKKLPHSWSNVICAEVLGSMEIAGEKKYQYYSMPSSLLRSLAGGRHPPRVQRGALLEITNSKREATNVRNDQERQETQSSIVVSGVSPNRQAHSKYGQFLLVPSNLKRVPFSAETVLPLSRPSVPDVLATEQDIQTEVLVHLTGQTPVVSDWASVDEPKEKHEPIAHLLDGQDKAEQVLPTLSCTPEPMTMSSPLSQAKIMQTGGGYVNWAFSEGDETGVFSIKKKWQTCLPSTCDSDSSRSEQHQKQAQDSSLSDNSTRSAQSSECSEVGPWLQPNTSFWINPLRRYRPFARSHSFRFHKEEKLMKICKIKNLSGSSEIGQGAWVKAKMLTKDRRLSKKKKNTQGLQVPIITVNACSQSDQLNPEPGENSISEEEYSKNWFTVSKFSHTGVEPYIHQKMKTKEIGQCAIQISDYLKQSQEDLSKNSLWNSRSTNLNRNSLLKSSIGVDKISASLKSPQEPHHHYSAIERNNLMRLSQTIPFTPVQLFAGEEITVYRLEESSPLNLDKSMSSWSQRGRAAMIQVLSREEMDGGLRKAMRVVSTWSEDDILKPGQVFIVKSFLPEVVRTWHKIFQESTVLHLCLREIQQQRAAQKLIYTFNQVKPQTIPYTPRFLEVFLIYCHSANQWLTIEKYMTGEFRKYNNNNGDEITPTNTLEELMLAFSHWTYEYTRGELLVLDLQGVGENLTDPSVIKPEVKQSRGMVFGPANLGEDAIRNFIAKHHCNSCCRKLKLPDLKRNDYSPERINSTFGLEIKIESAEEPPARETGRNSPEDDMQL
Experimental: as §5

TRPC2 = target: T2, TRPC2 (Mus musculus, UniProt Q9R244); assay: Agonist-induced Ca2+ changes in HEK293 cells transfected with TRPC2; type: cell-based
T2 construct: expressed in transfected cells; host or cells: HEK293
T2 sequence (Q9R244 whole entry, species assumed): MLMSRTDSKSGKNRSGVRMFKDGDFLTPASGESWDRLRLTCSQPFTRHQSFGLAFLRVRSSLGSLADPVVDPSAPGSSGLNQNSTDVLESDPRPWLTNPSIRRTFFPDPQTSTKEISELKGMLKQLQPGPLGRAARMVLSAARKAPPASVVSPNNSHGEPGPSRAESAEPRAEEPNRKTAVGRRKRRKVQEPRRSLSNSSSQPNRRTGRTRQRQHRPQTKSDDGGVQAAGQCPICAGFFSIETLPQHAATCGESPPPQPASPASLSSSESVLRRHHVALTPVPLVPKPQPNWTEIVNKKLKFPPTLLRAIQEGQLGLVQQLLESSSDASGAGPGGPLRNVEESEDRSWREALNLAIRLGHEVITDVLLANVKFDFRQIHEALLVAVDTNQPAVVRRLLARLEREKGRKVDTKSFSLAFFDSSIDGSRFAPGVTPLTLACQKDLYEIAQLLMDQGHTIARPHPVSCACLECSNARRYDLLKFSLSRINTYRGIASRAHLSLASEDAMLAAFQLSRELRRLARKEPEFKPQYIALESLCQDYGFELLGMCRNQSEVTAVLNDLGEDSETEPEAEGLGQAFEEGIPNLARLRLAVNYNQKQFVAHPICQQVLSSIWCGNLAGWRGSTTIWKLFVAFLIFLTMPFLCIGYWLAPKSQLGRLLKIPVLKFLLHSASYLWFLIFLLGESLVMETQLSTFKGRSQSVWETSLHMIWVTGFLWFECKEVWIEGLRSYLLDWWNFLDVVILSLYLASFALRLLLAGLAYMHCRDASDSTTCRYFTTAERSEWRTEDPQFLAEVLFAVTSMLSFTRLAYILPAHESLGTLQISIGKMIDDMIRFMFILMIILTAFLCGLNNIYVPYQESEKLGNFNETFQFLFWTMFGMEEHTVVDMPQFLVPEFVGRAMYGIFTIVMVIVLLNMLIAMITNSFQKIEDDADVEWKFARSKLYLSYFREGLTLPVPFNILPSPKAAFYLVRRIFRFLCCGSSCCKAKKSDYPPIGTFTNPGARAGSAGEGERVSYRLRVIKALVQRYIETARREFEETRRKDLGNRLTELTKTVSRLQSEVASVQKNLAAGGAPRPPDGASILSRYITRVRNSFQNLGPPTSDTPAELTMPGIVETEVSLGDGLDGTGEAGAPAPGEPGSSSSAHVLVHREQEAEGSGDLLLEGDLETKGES
Experimental: as §5

AML12 hepatocytes = assay: Anoxia (OGD) in AML12 hepatocyte cultures; type: cell-based, mouse; details: 2 hour, 4 hour or 6 hour anoxia
Experimental: as §6

[7] = system: LAD coronary artery ligation; assay: Mouse model of permanent LAD coronary artery ligation (myocardial infarction); type: in vivo; details: single intravenous dose within 15 minutes of LAD occlusion

Compound	cytoprotection after OGD compared with U0126 or NA-1 [1]	proliferation [2]	Demonstrated Reduction of Proliferation at or below 10 μM Inhibitor concentration [2]	proliferation [3]	proliferation (B16F1 melanoma cells)	proliferation (B16F10 melanoma cells)	Demonstrated Reduction of Proliferation at or below 10 μM Inhibitor concentration (B16F10 melanoma cells)	Demonstrated Reduction of Proliferation at or below 10 μM Inhibitor concentration (U2OS osteosarcoma)	Demonstrated Reduction of Proliferation at or below 10 μM Inhibitor concentration (DMS53 Lung cancer)	effect on voltage-sensitive Na+ currents [4]	effect on voltage-sensitive Ca2+ currents [5]	survival following exposure to OGD [6]	other results
COc1cc2c(cc1OC)C(c1sc3ccccc3c1Cl)=NCC2 [Compound M6]	more protective	reduce proliferation	MCF-7	reduce proliferation	reduce the proliferation	reduce the proliferation	B16F10 melanoma	U2OS osteosarcoma	DMS53 Lung cancer	–	–	–	IC50 (Y79 retinoblastoma cells; 72 h, Y79, Exp 1, 72 hours, read-out: IC50): 36.3 µM; IC50 (Y79 retinoblastoma cells; 72 h, Y79, Exp 2, 72 hours, read-out: IC50): 38.6 µM; death of cancer cells by MTT assay (Y79 retinoblastoma cells; Y79, 1-7.5 μM, 48-72 hours): resulted in the death of the cancer cells; IC50 (Y79 retinoblastoma cells; Y79, mean of Exp 1 and Exp 2, read-out: Mean IC50): 37.5 µM; IC50 (B16F10 melanoma cells; B16-F10, 72 h, B16-F10, Exp 1, 72 hours, read-out: IC50): 16.5 µM; IC50 (B16F10 melanoma cells; B16-F10, 72 h, B16-F10, Exp 2, 72 hours, read-out: IC50): 14.3 µM; IC50 (B16F10 melanoma cells; B16-F10, B16-F10, mean of Exp 1 and Exp 2, read-out: Mean IC50): 15.6 µM; Demonstrated Reduction of Proliferation at or below 10 μM Inhibitor concentration (DMS456 lung cancer): DMS456 lung cancer; MTD (in vivo): ≥ 20 mg/kg
O=C(Nc1ccc(F)cc1)C(Sc1ccc(Cl)cc1)c1ccccc1 (stereo not shown) [Compound M11]	–	reduce proliferation	MCF-7	reduce proliferation	reduce the proliferation	reduce the proliferation	B16F10 melanoma	U2OS osteosarcoma	DMS53 Lung cancer	did not affect	did not affect	promote survival	effect on potassium currents (K+ currents): slight inhibition
Cc1c(Cc2ccc(Cl)c(Cl)c2)c(=O)oc2cc(O)ccc12 [Compound M21]	more protective	–	–	–	–	–	–	–	–	no effect	no effect	promote survival	inhibition of K+ currents (K+ currents; membrane potentials of −10 mV): about 20%; effect on agonist-induced Ca2+ changes (TRPM6): no effect; effect on agonist-induced Ca2+ changes (TRPC2): no effect; survival after anoxia (AML12 hepatocytes): can promote survival; number of cells exhibiting DNA fragmentation (TUNEL) [7]: significantly reduced the number of cells exhibiting DNA fragmentation; infarct volume (TTC) ([7]; 24 h): significantly reduced infarct volume
